# Source: patent US12331033B2, “Inhibitors of SARM1” (Disarm Therapeutics, Inc., priority 2020, dated 2025)
# pIC50: −log10 of the molar value.
# Target: SARM1 (ARM-SAM-TIR) (Homo sapiens (Human), UniProt Q6SZW1)
# Experiment: ARM-SAM-TIR SARM1 IC50 assay (NADase activity, NAD+ cleavage, RapidFire MS)
# Type: biochemical
# Details: ARM-SAM-TIR lysate 5 μg/mL, 2 h pre-incubation, 5 μM NAD+, 2 hr room temperature
# How it was run: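 Lysate of NRK1-HEK293T cells transfected with full-length ARM-SAM-TIR SARM1 (5 μg/mL final) pre-incubated with compound (1% DMSO) 2 h at room temperature in Dulbecco's PBS. Reaction started with 5 μM NAD+, run 2 hr at room temperature, then stopped with TCA/acetonitrile. NAD+ and ADPR quantified by RapidFire MS.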
# Chain of SARM1 (ARM-SAM-TIR) (Q6SZW1 other isoform, or with tags, fused parts or gaps): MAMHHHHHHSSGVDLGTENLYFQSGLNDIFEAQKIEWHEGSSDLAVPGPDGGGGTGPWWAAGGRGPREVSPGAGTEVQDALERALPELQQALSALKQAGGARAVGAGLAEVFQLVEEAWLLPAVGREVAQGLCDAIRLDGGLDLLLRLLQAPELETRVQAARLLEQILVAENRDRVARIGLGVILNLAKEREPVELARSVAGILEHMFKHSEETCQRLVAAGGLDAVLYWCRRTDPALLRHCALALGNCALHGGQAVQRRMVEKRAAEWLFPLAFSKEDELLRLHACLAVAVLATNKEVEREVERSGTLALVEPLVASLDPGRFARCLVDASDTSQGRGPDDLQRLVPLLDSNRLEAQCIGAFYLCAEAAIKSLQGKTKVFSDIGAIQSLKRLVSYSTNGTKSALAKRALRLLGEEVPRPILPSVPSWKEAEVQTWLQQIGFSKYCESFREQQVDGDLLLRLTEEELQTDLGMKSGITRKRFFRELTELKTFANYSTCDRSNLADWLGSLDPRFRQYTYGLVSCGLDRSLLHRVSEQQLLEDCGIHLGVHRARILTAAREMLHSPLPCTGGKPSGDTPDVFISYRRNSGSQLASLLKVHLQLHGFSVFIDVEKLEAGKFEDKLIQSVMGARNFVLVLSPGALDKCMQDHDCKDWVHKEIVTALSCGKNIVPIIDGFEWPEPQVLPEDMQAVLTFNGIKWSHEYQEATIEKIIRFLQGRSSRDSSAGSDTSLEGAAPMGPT
row,SMILES,pIC50
1,[2H]C([2H])(C(=O)Nc1nnc(-c2ccnnc2)[nH]1)C([2H])([2H])c1ccc(Cl)cc1 [Example 230],> 5.30
2,Cc1c(-c2ccnnc2)n[nH]c1NC(=O)CC1CCOc2cc(Cl)ccc21 (centres unmarked) [Example 231],> 5.30
3,O=C(C[C@H]1CCOc2nc(Cl)ccc21)Nc1nnc(-c2ccncc2)[nH]1 [Example 232],> 5.30
4,O=C(C[C@@H]1CCOc2nc(Cl)ccc21)Nc1nnc(-c2ccncc2)[nH]1 [Example 233],> 5.30
5,O=C(C[C@H]1CCOc2cc(Cl)ncc21)Nc1nnc(-c2ccncc2)[nH]1 [Example 234],> 5.30
6,O=C(C[C@H]1CCOc2cc(Cl)ncc21)Nc1nnc(-c2ccncc2)[nH]1 [Example 235],4.82 to 5.30
7,O=C(Nc1cc(-c2ccncc2)n[nH]1)[C@H]1C[C@H](c2ccc(Cl)nc2)C1 [Example 236],> 5.30
8,Cc1c(-c2ccncc2)n[nH]c1NC(=O)[C@H]1C[C@H](c2ccc(Cl)nc2)C1 [Example 237],> 5.30
9,N#Cc1cnccc1-c1cc(NC(=O)CCc2ccc(Cl)cc2)[nH]n1 [Example 238],> 5.30
10,CN(C(=O)CCc1ccc(Cl)nc1)c1cc(-c2ccncc2)n[nH]1 [Example 239],> 5.30
11,Cc1nn(C)c(C)c1OCC(=O)Nc1[nH]nc(-c2ccncc2)c1C [Example 240],4.82 to 5.30
12,Cc1c(-c2ccncc2)n[nH]c1NC(=O)Cn1cc(C)c2ccccc21 [Example 241],4.82 to 5.30
13,Cc1c(-c2ccncc2)n[nH]c1NC(=O)c1ccc(-n2ccnn2)cc1 [Example 242],4.82 to 5.30
14,Cc1c(-c2ccncc2)n[nH]c1NC(=O)CCNC(=O)C1CC1C (centres unmarked) [Example 243],4.82 to 5.30
15,CCC(C)c1cc(C(=O)Nc2[nH]nc(-c3ccncc3)c2C)on1 (centres unmarked) [Example 244],4.82 to 5.30
16,Cc1c(-c2ccncc2)n[nH]c1NC(=O)CCc1nc2ccccc2s1 [Example 245],4.82 to 5.30
17,Cc1c(-c2ccncc2)n[nH]c1NC(=O)CC(C)c1ccc(F)cc1 (centres unmarked) [Example 246],> 5.30
18,Cc1c(-c2ccncc2)n[nH]c1NC(=O)/C=C/c1c(F)cccc1F [Example 247],4.82 to 5.30
19,Cc1c(-c2ccncc2)n[nH]c1NC(=O)CCc1cccc(Cl)c1 [Example 248],> 5.30
20,Cc1c(-c2ccncc2)n[nH]c1NC(=O)CCc1cc(F)ccc1F [Example 249],> 5.30
21,Cc1[nH]c(NC(=O)CCc2ccc(Cl)nc2)nc1-c1ccncc1 [Example 250],> 5.30
22,Cc1c(-c2ccncc2)n[nH]c1NC(=O)CCc1nc(C2CC2)no1 [Example 251],4.82 to 5.30

row,SMILES,pIC50
1,Cc1c(-c2ccncc2)n[nH]c1NC(=O)c1ccc(OCC2CC2)cc1 [Example 252],4.82 to 5.30
2,Cc1c(-c2ccncc2)n[nH]c1NC(=O)COc1ccc(C#N)cc1 [Example 253],4.82 to 5.30
3,Cc1cccc(CS(=O)(=O)Nc2[nH]nc(-c3ccncc3)c2C)c1 [Example 254],4.82 to 5.30
4,Cc1c(-c2ccncc2)n[nH]c1NC(=O)c1ccc(OC2CCC2)cc1 [Example 255],4.82 to 5.30
5,CCc1c(-c2ccncc2)n[nH]c1NC(=O)CN1CCCc2sccc2C1=O [Example 256],4.82 to 5.30
6,Cc1ccc(OCC(=O)Nc2[nH]nc(-c3ccncc3)c2C)cc1 [Example 257],4.82 to 5.30
7,Cc1c(-c2ccncc2)n[nH]c1NC(=O)CNC(=O)CC(C)(C)C [Example 259],4.82 to 5.30
8,Cc1c(-c2ccncc2)n[nH]c1NC(=O)CCc1ccc(C(F)(F)F)nc1 [Example 261],> 5.30
9,Cc1c(-c2ccncc2)n[nH]c1NC(=O)CCc1ccc(C#N)cc1 [Example 262],> 5.30
10,CNC(=O)Cc1c(-c2ccncc2)n[nH]c1NC(=O)CCc1ccc(Cl)cc1 [Example 263],> 5.30
11,O=C(CCc1ccc(Cl)cc1)Nc1[nH]nc(-c2ccnnc2)c1C1CCC1 [Example 264],> 5.30
12,O=C(CCc1ccc(Cl)nc1)Nc1[nH]nc(-c2ccnnc2)c1C1CCC1 [Example 265],> 5.30
13,O=C(CCc1ccc(Cl)nc1)Nc1[nH]nc(-c2ccncc2)c1F [Example 266],> 5.30
14,O=C(CCc1ccc(Cl)nc1)Nc1cc(-c2cccnc2)n[nH]1 [Example 267],4.82 to 5.30
15,Cc1c(-c2ccncc2)n[nH]c1NC(=O)CCc1ccc(F)c(F)c1 [Example 268],> 5.30
16,Cc1c(-c2ccncc2)n[nH]c1NC(=O)COc1ccc(Cl)cc1 [Example 269],> 5.30
17,Cc1c(-c2ccncc2)n[nH]c1NC(=O)CCc1ccc(Cl)c(C#N)c1 [Example 270],> 5.30
18,O=C(CCc1ccc(Cl)nc1)Nc1[nH]nc(-c2ccncc2)c1Cl [Example 271],> 5.30
19,O=C(CCc1ccc(Cl)nc1)Nc1[nH]nc(-c2ccnnc2)c1C1CC1 [Example 272],> 5.30
20,O=C(CCc1ccc(Cl)cc1)Nc1[nH]nc(-c2ccnnc2)c1C1CC1 [Example 273],> 5.30
21,Cc1c(-c2ccncc2)n[nH]c1NC(=O)CCc1ccc(C#N)c(F)c1 [Example 274],> 5.30
22,O=C(Nc1cc(-c2ccncc2)n[nH]1)C(O)Cc1ccc(Cl)cc1 (centres unmarked) [Example 275],> 5.30

row,SMILES,pIC50
1,O=C(Nc1nnc(-c2ccncc2)[nH]1)N[C@@H]1CCOc2cc(Cl)ncc21 [Example 276],4.82 to 5.30
2,O=C(Nc1nnc(-c2ccncc2)[nH]1)N[C@H]1CCOc2cc(Cl)ncc21 [Example 277],> 5.30
3,Cc1c(-c2ccnnc2)n[nH]c1NC(=O)C[C@H]1CCOc2cc(Cl)ccc21 [Example 278],> 5.30
4,Cc1c(-c2ccnnc2)n[nH]c1NC(=O)C[C@@H]1CCOc2cc(Cl)ccc21 [Example 279],> 5.30
5,O=C(Nc1nnc(-c2ccncc2)[nH]1)[C@H]1C[C@H](c2ccc(Cl)nc2)C1 [Example 280],> 5.30
6,N#Cc1c(-c2ccncc2F)n[nH]c1NC(=O)CCc1ccc(Cl)nc1 [Example 281],> 5.30
7,[2H]C([2H])([2H])c1c(-c2ccncc2)n[nH]c1NC(=O)CCc1ccc(Cl)nc1 [Example 282],> 5.30
8,O=C(CC1CNc2cc(Cl)ccc21)Nc1nnc(-c2ccncc2)[nH]1 (centres unmarked) [Example 283],> 5.30
9,COCc1c(-c2ccncc2)n[nH]c1NC(=O)CCc1ccc(Cl)cc1 [Example 284],> 5.30
10,CNC(=O)Cc1c(-c2ccncc2)n[nH]c1NC(=O)CCc1ccc(Cl)nc1 [Example 285],> 5.30
11,NC(=O)c1cnccc1-c1nnc(NC(=O)CCc2ccc(Cl)cc2)[nH]1 [Example 286],> 5.30
12,Cc1c(-c2ccncc2)nn(C)c1NC(=O)CCc1ccc(Cl)nc1 [Example 287],> 5.30
13,Cc1c(-c2ccncc2)n[nH]c1N(C)C(=O)CCc1ccc(Cl)nc1 [Example 288],4.82 to 5.30
14,Cc1c(-c2ccncc2)n[nH]c1NC(=O)[C@H](O)Cc1ccc(Cl)cc1 [Example 289],> 5.30
15,Cc1c(-c2ccncc2)n[nH]c1NC(=O)[C@@H](O)Cc1ccc(Cl)cc1 [Example 290],> 5.30
16,Cc1c(-c2ccncc2)n[nH]c1NC(=O)CSc1ccc(Cl)cc1 [Example 292],> 5.30
17,Cc1c(-c2ccncc2)n[nH]c1NC(=O)CS(=O)(=O)c1ccc(Cl)cc1 [Example 293],> 5.30
18,Nc1cnccc1-c1cc(NC(=O)CCc2ccc(Cl)nc2)[nH]n1 [Example 294],> 5.30
19,O=C(Cc1coc2cc(Cl)ccc12)Nc1nnc(-c2ccncc2)[nH]1 [Example 295],> 5.30
20,O=C(Nc1nnc(-c2ccncc2)[nH]1)N1CCc2cc(Cl)ncc2C1 [Example 296],> 5.30
21,COCc1c(-c2ccncc2)n[nH]c1NC(=O)CCc1ccc(Cl)nc1 [Example 297],> 5.30
22,O=C(CCc1ccc(Cl)cc1)Nc1cc(-c2ccncc2C2CC2)n[nH]1 [Example 298],> 5.30

row,SMILES,pIC50
1,O=C(CCc1ccc(Cl)cc1)Nc1cc(-c2ccncc2-c2ccccc2)n[nH]1 [Example 299],> 5.30
2,O=C(CCc1ccc(Cl)cc1)Nc1cc(-c2c(F)cncc2F)n[nH]1 [Example 300],> 5.30
3,CN(C)C(=O)Cc1c(-c2ccncc2)n[nH]c1NC(=O)CCc1ccc(Cl)cc1 [Example 301],> 5.30
4,NC(=O)Cc1c(-c2ccncc2)n[nH]c1NC(=O)CCc1ccc(Cl)cc1 [Example 302],> 5.30
5,CC1(c2c(-c3ccncc3)n[nH]c2NC(=O)CCc2ccc(Cl)cc2)CC1 [Example 303],> 5.30
6,N#Cc1c(-c2ccnnc2)n[nH]c1NC(=O)CCc1ccc(Cl)nc1 [Example 304],> 5.30
7,Cc1ccc(CCC(=O)Nc2[nH]nc(-c3ccncc3)c2C)cn1 [Example 306],> 5.30
8,Cc1ccc(CCC(=O)Nc2[nH]nc(-c3ccncc3F)c2C)cn1 [Example 307],> 5.30
9,Cc1c(-c2ccncc2F)n[nH]c1NC(=O)CCc1ccc(Cl)s1 [Example 308],> 5.30
10,NC(=O)Cc1c(-c2ccncc2)n[nH]c1NC(=O)CCc1ccc(Cl)nc1 [Example 309],> 5.30
11,CC1(c2c(-c3ccncc3)n[nH]c2NC(=O)CCc2ccc(Cl)nc2)CC1 [Example 310],> 5.30
12,CC1(c2c(-c3ccnnc3)n[nH]c2NC(=O)CCc2ccc(Cl)cc2)CC1 [Example 311],> 5.30
13,N#Cc1c(-c2ccnnc2)n[nH]c1NC(=O)CCc1ccc(Cl)cc1 [Example 312],> 5.30
14,Cc1c(-c2ccncc2F)n[nH]c1NC(=O)CCc1ccc(Cl)cc1 [Example 313],> 5.30
15,Cc1c(-c2ccncc2F)n[nH]c1NC(=O)CCc1ccc(Cl)nc1 [Example 314],> 5.30
16,O=C(CCc1ccc(Cl)cc1)Nc1nnc(-c2c(F)cncc2F)[nH]1 [Example 315],4.82 to 5.30
17,CN(C)C(=O)Cc1c(-c2ccncc2)n[nH]c1NC(=O)CCc1ccc(Cl)nc1 [Example 316],> 5.30
18,Cc1c(-c2ccncc2)n[nH]c1NC(CCc1ccc(Cl)cc1)C(F)(F)F (centres unmarked) [Example 317],4.82 to 5.30
19,Cc1c(-c2ccncc2F)n[nH]c1NC(=O)[C@H]1C[C@H](c2ccc(Cl)cc2)C1 [Example 318],> 5.30
20,Cc1c(-c2ccncc2F)n[nH]c1NC(=O)CCc1ccc(Cl)c(F)c1 [Example 320],> 5.30
